Where two headings read alike, the source gives them in different places.

In data set [1] the test system is AHR-regulated gene CYP1A1. Kind of data set: In vitro assay 3: AHR-regulated CYP1A1 expression in human cell line (U937, qPCR). (In general: Real-time PCR tracks product formation cycle by cycle.)
Method: In Vitro Assay 3: AHR-Regulated CYP1A1 Expression in Human Cell Line
To assess the AHR inhibitory activity of the substances described in this application, the ability thereof to antagonise ligand-induced AHR gene regulation in a dose-dependent manner was quantified. For this purpose, quantitative PCR analysis was used to determine expression of the AHR-regulated gene CYP1A1 in a human monocytic U937 cell line upon stimulation with 200 μM KA in the presence and absence of AHR inhibitor. U937 cells were sown at a concentration of 2×10^5 cells/well in 100 ul of growth medium (RPMI 1640, 20% FCS) in 96-well microtitre plates. CYP1A1 expression was induced with 200 μM KA (positive control) in the presence or absence of the substances for 6 hours. Human U937 cells were typically incubated with eight different concentrations of the substances (1 nM, 3 nM, 10 nM, 30 nM, 100 nM, 300 nM, 1 μM and 3 μM) and analyzed in duplicate on the same microtitre plate. After stimulation, cells were lysed with Nucleic Acid Lysis Solution (#4305895, Applied Biosystems) and RNA was isolated using the 6100 Nucleic Acid Preparation Station (Applied Biosystems) and reverse-transcribed to cDNA using SuperScript VILO cDNA synthesis kit (#11754-250, Invitrogen). Unstimulated cells were used as the negative control. Taqman probes for human CYP1A1 (Hs01054797_g1) and human HPRT (Hs02800695_m1) were used to analyze fold expression of CYP1A1 of HPRT. Quantitation was performed on a Taqman SDS7900HT.
Data set [2] has as its target T1, AHR (Homo sapiens, UniProt P35869).
T1 sequence (P35869 11-848): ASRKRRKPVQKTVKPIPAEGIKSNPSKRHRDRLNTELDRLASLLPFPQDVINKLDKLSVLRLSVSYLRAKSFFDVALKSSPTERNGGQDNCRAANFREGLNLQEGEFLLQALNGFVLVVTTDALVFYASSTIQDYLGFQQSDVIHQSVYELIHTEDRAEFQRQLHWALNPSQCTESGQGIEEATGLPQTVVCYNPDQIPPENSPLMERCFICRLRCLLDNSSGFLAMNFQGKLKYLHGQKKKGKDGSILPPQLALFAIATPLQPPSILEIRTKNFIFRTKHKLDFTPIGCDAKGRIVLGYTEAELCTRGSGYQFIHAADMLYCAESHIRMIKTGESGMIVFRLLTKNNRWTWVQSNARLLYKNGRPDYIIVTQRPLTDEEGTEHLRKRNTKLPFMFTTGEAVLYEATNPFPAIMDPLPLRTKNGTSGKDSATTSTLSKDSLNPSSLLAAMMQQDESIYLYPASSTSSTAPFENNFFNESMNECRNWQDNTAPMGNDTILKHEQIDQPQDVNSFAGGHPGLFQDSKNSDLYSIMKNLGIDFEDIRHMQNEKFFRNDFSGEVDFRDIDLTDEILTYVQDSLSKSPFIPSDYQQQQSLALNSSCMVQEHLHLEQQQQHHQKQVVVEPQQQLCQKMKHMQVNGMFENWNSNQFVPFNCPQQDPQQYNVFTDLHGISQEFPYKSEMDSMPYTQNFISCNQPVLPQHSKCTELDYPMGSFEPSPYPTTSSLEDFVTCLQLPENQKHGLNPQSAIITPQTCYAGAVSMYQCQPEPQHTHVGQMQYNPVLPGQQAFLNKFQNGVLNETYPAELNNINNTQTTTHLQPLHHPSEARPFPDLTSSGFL
As to the kind of experiment: In vitro assay 1: antagonism in human cell line (transactivation assay, kynurenic acid prestimulated). As to conditions: Assay 1: AHR-luc Hum Antagonism IC50 [M], 150 μM kynurenic acid, 20 hours, firefly luciferase.
Method: Transactivation assays were carried out in U87 glioblastoma cells (ATCC) endogenously expressing AHR. In addition the cells were stably transfected with an AHR inducible firefly luciferase reporter gene construct that carried AHR-binding sites (DRE) in its promoter and a renilla reporter gene construct with constitutively active promoter. Kynurenic acid is an endogenous AHR activating ligand and was used to prestimulate test cells prior to testing the antagonistic properties of compounds.
In Vitro Assay 1: Antagonism in Human Cell Line
Cells in medium (tryptophan free RPMI, 1% FCS, 2 mM Glutamine) supplemented with 150 μM kynurenic acid were grown for 20 hours in absence (negative control) or presence of increasing concentrations of test compounds (typical dilutions: 72 pmol/L, 0.25 nmol/L, 0.89 nmol/L; 3.1 nmol/L, 11 nmol/L, 38 nmol/L, 130 nmol/L, 470 nmol/L, 1.6 μmol/L, 5.7 μmol/L and 20 μmol/L in duplicates). As positive inhibition control cells supplemented with 150 μM kynurenic acid were incubated in presence of 5 μM Staurosporin. Normalization was done by positive and negative controls.
Firefly luciferase and Renilla activity was determined by the DualGlo Luciferase Assay System (Promega, #2920).

Data set [3] addresses T1, AHR. Kind of data set: In vitro assay 2: agonism in human cell line (transactivation assay).
Setting [4] is: Homo sapiens, U-937, 6 h, read-out: Assay 3: Hum CYP1A1 Antagonism IC50 [M], U937 cells, 200 μM KA, 6 hours, qPCR.
[5] abbreviates: Assay 2: AHR-luc Hum Agonism IC50 [M], no kynurenic acid, 20 hours, firefly luciferase.

For orientation: IC50 means the concentration that inhibits the measured activity by half. On to `O=C(NC(CO)CO)c1cc(-c2ccc(C(F)(F)F)cc2)nn(-c2cccc(F)c2)c1=O` [Example 250, N-(1,3-Dihydroxypropan-2-yl)-2-(3-fluorophenyl)-3-oxo-6-[4-(trifluoromethyl)phenyl]-2,3-dihydropyridazine-4-carboxamide], for which the IC50 in data set [1] (setting [4]) was 7.24e-08 M; at AHR [2], 4.69e-08 M; against AHR [3] (setting [5]), greater than 2e-05 M.
With `O=C(NC(CO)C1CCOC1)c1cc(-c2ccc(OC(F)(F)F)cc2)nn(-c2cccc(F)c2)c1=O` (single isomer, unassigned) [Example 176, 2-(3-Fluorophenyl)-N-[2-hydroxy-1-(tetrahydrofuran-3-yl)ethyl]-3-oxo-6-[4-(trifluoromethoxy)phenyl]-2,3-dihydropyridazine-4-carboxamide], the IC50 in data set [1] (read-out: Assay 3: Hum CYP1A1 Antagonism IC50, U937 cells, 200 μM KA, 6 hours, qPCR) was 1.02e-07 M; against AHR [2] it was 1.71e-07 M; on AHR [3] (read-out: Assay 2: AHR-luc Hum Agonism IC50, no kynurenic acid, 20 hours, firefly luciferase), greater than 2e-05 M.
As to `C[C@@H](CO)NC(=O)c1cc(-c2ccc(Cl)cc2)nn(-c2cc(F)cc(F)c2)c1=O` [Example 47, 6-(4-Chlorophenyl)-2-(3,5-difluorophenyl)-N-[(2S)-1-hydroxypropan-2-yl]-3-oxo-2,3-dihydropyridazine-4-carboxamide], the IC50 in data set [1] (setting [4]) is 2.52e-08 M; at AHR [2], 3.08e-08 M; against AHR [3] (setting [5]) it was greater than 2e-05 M.
On the same counts, the results for `O=C(NCC(O)C(F)(F)F)c1cc(-c2ccc(Cl)cc2)nn(-c2cc(F)cc(F)c2)c1=O` (single isomer, unassigned) [Example 45, 6-(4-Chlorophenyl)-2-(3,5-difluorophenyl)-3-oxo-N-(3,3,3-trifluoro-2-hydroxypropyl)-2,3-dihydropyridazine-4-carboxamide] are 1.18e-08 M, 1.02e-08 M and greater than 2e-05 M.
Turning to `N#C[C@@H](CO)NC(=O)c1cc(-c2ccc(Cl)cc2)nn(-c2cccc(F)c2)c1=O` [Example 393, 6-(4-chlorophenyl)-N-[(1S)-1-cyano-2-hydroxyethyl]-2-(3-fluorophenyl)-3-oxo-2,3-dihydropyridazine-4-carboxamide], the IC50 in data set [1] (setting [4]) was 4.6e-08 M; against AHR [2], 2.7e-08 M; at AHR [3] (setting [5]), greater than 2e-05 M.
On the same counts, the results for `Cc1ccc(-c2cc(C(=O)N[C@H](CO)C(C)C)c(=O)n(-c3cc(F)cc(F)c3)n2)cc1` [Example 51, 2-(3,5-Difluorophenyl)-N-[(2S)-1-hydroxy-3-methylbutan-2-yl]-6-(4-methylphenyl)-3-oxo-2,3-dihydropyridazine-4-carboxamide] are 1.15e-09 M, 4.16e-09 M and greater than 2e-05 M.
On the same counts, the results for `O=C(NC(CO)C1CCOC1)c1cc(-c2ccc(OC(F)F)cc2)nn(-c2cccc(F)c2)c1=O` (single isomer, unassigned) [Example 145, 6-[4-(Difluoromethoxy)phenyl]-2-(3-fluorophenyl)-N-{(2-hydroxy-1-tetrahydrofuran-3-yl)ethyl}-3-oxo-2,3-dihydropyridazine-4-carboxamide] are 3.89e-08 M, 9.33e-08 M and greater than 2e-05 M.
In the case of `O=C(N[C@H]1CCCC[C@@H]1O)c1cc(-c2ccc(Cl)cc2)nn(-c2cccc(F)c2)c1=O` (single isomer, unassigned) [Example 118, 6-(4-chlorophenyl)-2-(3-fluorophenyl)-N-(trans-2-hydroxycyclohexyl)-3-oxo-2,3-dihydropyridazine-4-carboxamide], the IC50 in data set [1] (setting [4]) was 3.13e-08 M; on AHR [2], 3.25e-08 M; against AHR [3] (setting [5]) it was greater than 2e-05 M.
On the same counts, the results for `Cc1cccc(-n2nc(-c3ccc(Cl)cc3)cc(C(=O)N[C@@H](C)CO)c2=O)c1` [Example 369, 6-(4-chlorophenyl)-N-[(2S)-1-hydroxypropan-2-yl]-2-(3-methylphenyl)-3-oxo-2,3-dihydropyridazine-4-carboxamide] are greater than 1e-06 M, 9.73e-07 M and greater than 2e-05 M.

The values above are taken from patent publication US11040035B2, “3-oxo-2,6-diphenyl-2,3-dihydropyridazine-4-carboxamides” (BAYER PHARMA AKTIENGESELLSCHAFT, priority 2016, dated 2021).
